Like-named read-outs stand apart in the source and are kept apart here.
Columns and labels:
[1] = molecular target: T1, Porcine pancreatic phospholipase A2 (Sus scrofa, UniProt P00592); test: Phospholipase A2 inhibitory activity, method B (L-α-dipalmitoylphosphatidylcholine substrate); type: biochemical; details: 1,000 ppm, 37°C for 30 minutes, read-out: % inhibition of PLA2 (1,000 ppm)
T1 construct: purchased Boehringer Mannheim·Yamanouchi K.K. 161454·122416
Method in brief: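 Substrate: L-α-dipalmitoylphosphatidylcholine/sodium cholate mixed micelles in 250 mM NaCl, 100 mM Tris-HCl pH 8.0. Enzyme (10 µg/ml stock) incubated with compound in buffer containing CaCl2 and BSA, 30 min at 37 °C. Released free fatty acid measured by ACS-ACOD at 540 nm; % inhibition derived from apparent enzyme concentration read off a standard curve.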

[2] = system: increased vascular permeability induced by acetic acid; test: Inhibitory activity on increased vascular permeability induced by acetic acid (Rat Whittle method, method D); type: in vivo, SD (Crj: CD) male rats; details: amount of leaked dye
Description: Using SD (Crj: CD) male rats, each test group consisted of from 3 to 5 rats. A test compound was mixed with Tween 80 [polyoxyethylenesorbitan monooleate (manufactured by Nacalai Tesque K.K.)], and distilled water was added thereto to obtain a 2% Tween 80 suspension, or it was dissolved in the form of a salt in water to obtain an aqueous solution. A test compound was orally administered, and one hour later, 0.7% acetic acid was intraperitonially injected to each rat in an amount of 0.05 ml/10 g, and at the same time, 2% brilliant blue was intravenously injected into the tail vein in an amount of 0.05 ml/20 g. Thirty minutes after the injection of brilliant blue, the cervical vertebrae were dislocated under anesthesia by chloroform, and the abdorminal cavity was washed with 10 ml of a physiological saline. The washing solution was subjected to centrifugal separation at 3,000 rpm for 10 minutes, and the amount of the dye in the supernatant was measured at 600 nm absorbance by Microplate ELISA Reader (Model 2550EIA Reader, manufactured by Bio-Rad Laboratories). The inhibition rate of the amount of leaked dye in the group to which a test compound was administered relative to the control group was obtained from the following formula, and the results are shown in Table 9. Inhibition rate (%) = (l -(C)/(D)) x 100 [formula] • C: Amount of leaked dye in the group to which a test compound was administered. • D: Amount of leaked dye in the control group.

carrageenin edema = test: Inhibitory activity on carrageenin edema; type: in vivo, Wistar male rats; details: rat, paw swelling volume three hours after carrageenin; for inhibition in vivo at 100 mg/kg: dose 100 mg/kg orally; for Inhibition rate (%): dose 50 mg/kg orally
Method in brief: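 Male Wistar rats (about 100 g, 5 per group) dosed orally at 200, 100, 50 or 25 mg/kg as 2% Tween 80 suspension or aqueous salt solution, 1 h before subplantar injection of 0.1 ml 1% λ-carrageenin. Paw swelling measured at 3 h; % inhibition versus control group mean swelling.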

[3] = system: experimental acute pancreatitis model; test: Effects against acute pancreatitis (Test Example 8, closed duodenal loop method, lesion scores); type: in vivo, Crj-CD male rats; details: sodium salt, 6 hours after ventrotomy; for inhibition in vivo at 10 mg/kg: Rattus norvegicus, 10 mg/kg single intravenous injection
Method in brief: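 Closed duodenal loop pancreatitis in male Crj-CD rats (n=3) under halothane/nitrous oxide; sodium-salt compounds given i.v. into tail vein by continuous infusion or bolus, controls untreated. At 6 h, four pancreatic lesions scored 0-3; inhibition % of total and hemorrhagic scores calculated versus control.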

[4] = molecular target: T1, Porcine pancreatic phospholipase A2; test: Phospholipase A2 inhibitory activity, method A (egg yolk lecithin substrate); type: biochemical; details: 1,000 ppm, 37°C for 30 minutes, read-out: % inhibition of PLA2 (1,000 ppm)
Description: To 10 mg of egg yolk lecithin (manufactured by Wako Pure Chemical Industries Ltd.), 1 ml of glycerine, 2 ml of a 50 mM Tris-HCl buffer solution (pH7.5) [Tris(hydroxymethyl)aminomethane (manufactured by Nacalai Tesque K.K.) was adjusted to pH7.5 with hydrochloric acid], 0.5 ml of a 150 mM calcium chloride solution (calcium chloride was dissolved in a 50 mM Tris-HCl buffer solution) and 0.5 ml of a 0.05% Triton-X100 (manufactured by Nacalai Tesque K.K.) solution (Triton-X100 was dissolved in a 50 mM Tris-HCl buffer solution), were added and dispersed by an agate mortar or dispersed by an ultrasonic processor (Model W-225, manufactured by Heat System-Ultrasonics, Inc.) for 5 minutes (30W) to obtain a substrate.
Porcine pancreatic phospholipase A2 [(161454·122416) manufactured by Boehringer Mannheim·Yamanouchi K.K.] was used.
To a 96 well microtitration plate (flat bottom, manufactured by Sumitomo Bakelite Medical Co., Ltd.), 40 µl of the substrate, 5 µl of a solution prepared by dissolving 10 mg of a test compound in 500 µl of dimethylsulfoxide, followed by an addition of 500 µl of a 50 mM Tris-HCl buffer solution, and 5 µl of an enzyme solution of 20 ng/ml (prepared by diluting the enzyme in a 50 mM Tris-HCl buffer solution), were added and reacted at 37°C for 30 minutes. After termination of the reaction, the released free fatty acid was quantitatively analyzed in accordance with the ACS-ACOD (acyl CoA synthetase-acyl CoA oxidase) method [a kit of NEFA C test wako (manufactured by Wako Pure Chemical Industries, Ltd.) was used]. The quantitative analysis was made by means of Microplate ELISA Reader (Model 2550EIA Reader, manufactured by Bio-Rad Laboratories) at a wavelength of 540 nm. Separately, such experiments as mentioned above, were carried out at various concentrations (2 µg/ml, 1 µg/ml and 0.5 µg/ml) of phospholipase A2 without a test compound. Then, the concentration of the free fatty acid versus the concentration of phospholipase A2 was plotted.
From this standard curve, the apparent concentration of phospholipase A2 in the case with a test compound, was read. Then, the percent inhibition of the enzyme was calculated by the following formula. Percent inhibition (%) = (l -(A)/(B)) x 100 [formula] • A: Apparent enzyme concentration when a test compound is added. • B: True enzyme concentration when a test compound is added.

[5] = system: increased vascular permeability induced by acetic acid; test: Inhibitory activity on increased vascular permeability induced by acetic acid (Mouse Whittle method, method C); type: in vivo, ddy male mice; details: amount of leaked dye
Description: Using ddy male mice, each test group consisted of 4 or 5 mice. A test compound was mixed with Tween 80 [polyoxyethylenesorbitan monooleate (manufactured by Nacalai Tesque K.K.)], and distilled water was added thereto to obtain a 2% Tween 80 suspension, or it was dissolved in the form of a salt in water to obtain an aqueous solution. A test compound was orally administered, and upon expiration of one hour from the administration, 0.7% acetic acid was intraperitonially injected to each mouse in an amount of 0.1 ml/10 g, and at the same time, 2% brilliant blue was intravenously injected into the tail vein in an amount of 0.1 ml/20 g. Thirty minutes after the injection of brilliant blue, the cervical vertebrae were dislocated under anesthesia by chloroform, and the abdorminal cavity was washed with 5 ml of a physiological saline. The washing solution was subjected to centrifugal separation at 3,000 rpm for 10 minutes, and the amount of the dye in the supernatant was measured at 600 nm absorbance by Microplate ELISA Reader (Model 2550EIA Reader, manufactured by Bio-Rad Laboratories). The inhibition rate of the amount of leaked dye in the group in which a test compound was administered relative to the control group was obtained by the following formula. Inhibition rate (%) = (l -(C)/(D)) x 100 [formula] • C: Amount of leaked dye in the group to which a test compound was administered. • D: Amount of leaked dye in the control group.

[6] = Acute toxicity, intravenous injection (LD50); type: in vivo; details: mouse, in vivo, ddy male mice, sodium salt, mortality over one week
Description: Administration route: Intravenous injection
Using ddy male mice (body weight: 25 - 30 g), each test group consisted of 5 mice. A test compound was dissolved in the form of a sodium salt in a physiological saline or in a 5% glucose aqueous solution, and intravenously injected in an amount of 0.1 ml/10 g body weight. After the injection, the mortality rate was obtained over one week, and the median lethal dose LD50 (mg/kg) was determined.

[7] = read-out: Inhibition rate of hemorrhagic lesions (%)
[8] = read-out: Inhibition rate of pancreatitis lesions (%)
[9] = po, 3 h, read-out: Inhibition rate (%)
[10] = 20 mg/kg continuous intravenous injection

T1 sequence (P00592 23-146): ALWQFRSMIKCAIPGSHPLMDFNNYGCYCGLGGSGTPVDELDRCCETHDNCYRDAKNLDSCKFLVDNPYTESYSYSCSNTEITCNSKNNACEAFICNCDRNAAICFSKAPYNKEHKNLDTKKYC

CS(=O)(=O)Nc1ncc(C(F)(F)F)cc1NC(=O)C=Cc1cccs1 [compound 72]
inhibition at 1000 ppm [1]: 73% | Inhibition rate (%) ([2]; dose 25 mg/kg orally): 66% | inhibition in vivo at 25 mg/kg (carrageenin edema; po, 3 h, dose 25 mg/kg orally, read-out: Inhibition rate (%)): 21% | inhibition in vivo at 10 mg/kg [3, 7]: 62% | inhibition in vivo at 10 mg/kg [3, 8]: 32%

CCCCC(=O)Nc1cc(C(F)(F)F)cnc1NS(C)(=O)=O [Compound No. 2]
inhibition at 1000 ppm [4]: 55% | Inhibition rate (%) ([5]; dose 20 mg/kg orally): 51% | inhibition in vivo at 100 mg/kg (carrageenin edema; [9]): 17% | LD50 at 168 h ([6]; iv): 50 to 100 mg/kg | Inhibition rate of hemorrhagic lesions (%) ([3]; 26 mg/kg continuous intravenous injection): 46%

CS(=O)(=O)Nc1ncc(C(F)(F)F)cc1NC(=O)c1ccncc1 [compound 82]
inhibition at 1000 ppm [1]: 38% | Inhibition rate (%) ([2]; dose 25 mg/kg orally): 38% | Inhibition rate (%) (carrageenin edema): 19%

CCOC(=O)NC(=S)Nc1cc(C(F)(F)F)cnc1NS(C)(=O)=O [compound 18]
inhibition at 1000 ppm [4]: 64% | inhibition at 1000 ppm [1]: 49% | Inhibition rate (%) ([5]; dose 25 mg/kg orally): 49% | LD50 at 168 h [6]: > 150 mg/kg

CCCCCC(=O)Nc1cc(C(F)(F)F)cnc1NS(C)(=O)=O [Compound No. 3]
inhibition at 1000 ppm [4]: 67% | Inhibition rate (%) ([5]; dose 50 mg/kg orally): 58% | inhibition in vivo at 100 mg/kg (carrageenin edema; [9]): 20% | LD50 at 168 h ([6]; iv): > 100 mg/kg | inhibition in vivo at 10 mg/kg [3, 7]: 49% | inhibition in vivo at 10 mg/kg [3, 8]: 51%

CCS(=O)(=O)Nc1ncc(C(F)(F)F)cc1NC(=O)c1cccc(F)c1 [compound 98]
inhibition at 1000 ppm [1]: 65% | Inhibition rate (%) ([2]; dose 50 mg/kg orally): 32% | Inhibition rate (%) (carrageenin edema): 45%

CS(=O)(=O)Nc1ncc(C(F)(F)F)cc1NC(=O)OC1CCCCC1 [compound 121]
inhibition at 1000 ppm [1]: 90% | Inhibition rate (%) ([2]; dose 12.5 mg/kg orally): 31%

CS(=O)(=O)Nc1ncc(C(F)(F)F)cc1NC(=O)c1ccccc1F [compound 57]
inhibition at 1000 ppm [4]: 57% | Inhibition rate (%) ([5]; dose 20 mg/kg orally): 43% | inhibition in vivo at 100 mg/kg (carrageenin edema; [9]): 35% | LD50 at 168 h ([6]; iv): 83 mg/kg | Inhibition rate of hemorrhagic lesions (%) [3, 10]: 60%

CCCOC(=O)Nc1cc(C(F)(F)F)cnc1NS(C)(=O)=O [compound 16]
inhibition at 1000 ppm [4]: 43% | Inhibition rate (%) ([5]; dose 20 mg/kg orally): 55% | inhibition in vivo at 100 mg/kg (carrageenin edema; [9]): 24% | LD50 at 168 h [6]: > 100 mg/kg | Inhibition rate of hemorrhagic lesions (%) [3, 10]: 52%

C/C=C/C(=O)Nc1cc(C(F)(F)F)cnc1NS(C)(=O)=O [compound 55, N-(2-methylsulfonylamino-5-trifluoromethyl-3-pyridyl)crotonamide]
inhibition at 1000 ppm [4]: 49% | Inhibition rate (%) ([5]; dose 25 mg/kg orally): 59% | LD50 at 168 h ([6]; iv): 237 mg/kg | Inhibition rate of hemorrhagic lesions (%) ([3]; 40 mg/kg continuous intravenous injection): 65%

C=CC(=O)Nc1cc(C(F)(F)F)cnc1NS(C)(=O)=O [compound 9]
inhibition at 1000 ppm [4]: 71% | Inhibition rate (%) ([5]; dose 50 mg/kg orally): 81% | LD50 at 168 h ([6]; iv): > 150 mg/kg | inhibition in vivo at 10 mg/kg [3, 7]: 36% | inhibition in vivo at 10 mg/kg [3, 8]: 21%

CCCS(=O)(=O)Nc1ncc(C(F)(F)F)cc1NC(=O)C(F)(F)C(F)(F)F [compound 22]
inhibition at 1000 ppm [4]: 74% | Inhibition rate (%) ([5]; dose 10 mg/kg orally): 39% | inhibition in vivo at 100 mg/kg (carrageenin edema; [9]): 29% | LD50 at 168 h ([6]; iv): > 100 mg/kg

CS(=O)(=O)Nc1ncc(C(F)(F)F)cc1NC(=O)C(F)(F)Cl [compound 11]
inhibition at 1000 ppm [4]: 52% | Inhibition rate (%) ([5]; dose 100 mg/kg orally): 49% | inhibition in vivo at 100 mg/kg (carrageenin edema; [9]): 24% | LD50 at 168 h ([6]; iv): > 150 mg/kg | Inhibition rate of hemorrhagic lesions (%) ([3]; 23 mg/kg continuous intravenous injection): 52%

CCCC(=O)Nc1cc(C(F)(F)F)cnc1NS(C)(=O)=O [Compound No. 1]
inhibition at 1000 ppm [4]: 45% | Inhibition rate (%) ([5]; dose 50 mg/kg orally): 46% | LD50 at 168 h ([6]; iv): 100 to 150 mg/kg | inhibition in vivo at 10 mg/kg [3, 7]: 66% | inhibition in vivo at 10 mg/kg [3, 8]: 49%

Source: patent EP0465913B1, “Diaminotrifluoromethylpyrimidine derivatives, process for their production and phospholipase A2 inhibitor containing them” (ISHIHARA SANGYO KAISHA, LTD., priority 1990, dated 1992)
